In US20030157174A1, “Enteric granular preparations of hardly water soluble drugs characterized by containing water-repellent component” (priority 2002, published 2003):
≈ marks a conversion by molar mass, not a printed value.

Experiment: Solubilities of Compound A to several test solutions
Type: physicochemical
Excerpt: Compound A was used as an insoluble active ingredient in the following references and examples.

Final pH (test solution JP-1 Sol.): 1.15
Final pH (test solution JP-2 Sol.): 6.84
Solubility 3 hours (test solution JP-2 Sol.): 81.08 µg/mL (≈ 184 µM)
Solubility 6 hours (test solution JP-2 Sol.): 81.65 µg/mL (≈ 185 µM)
Final pH (test solution Water): 5.81
Solubility 3 hours (test solution Water): 5.56 µg/mL (≈ 12.6 µM)
Solubility 6 hours (test solution Water): 5.93 µg/mL (≈ 13.4 µM)
Final pH (test solution pH4.0): 4.07
Final pH (test solution pH6.0): 6.08
Solubility 3 hours (test solution pH6.0): 15.19 µg/mL (≈ 34.4 µM)
Solubility 6 hours (test solution pH6.0): 15.57 µg/mL (≈ 35.3 µM)
Final pH (test solution pH7.8): 7.6
Solubility 3 hours (test solution pH7.8): 487.87 µg/mL (≈ 1100 µM)
Solubility 6 hours (test solution pH7.8): 489.05 µg/mL (≈ 1110 µM)
Final pH (test solution pH8.0): 7.76
Solubility 3 hours (test solution pH8.0): 652.56 µg/mL (≈ 1480 µM)
Solubility 6 hours (test solution pH8.0): 675.55 µg/mL (≈ 1530 µM)
Final pH (test solution pH8.5): 8.29
Solubility 3 hours (test solution pH8.5): 6197.64 µg/mL (≈ 14000 µM)
Solubility 6 hours (test solution pH8.5): 6224.39 µg/mL (≈ 14100 µM)
SMILES: CC1(C)[C@H]2C[C@H](C/C=C\CCCC(=O)O)[C@@H](NC(=O)c3csc4ccc(O)cc34)[C@@H]1C2 [Compound A, (Z)-7-[(1R,2R,3S,5S)-2-(5-hydroxybenzo[b]thiophen-3-ylcarbonylamino)-10-norpinan-3-yl]-5-heptenoic acid]
